Numbered stars: 1 amine (or outer) side, 2 acyl side, 3 side chain; on linkers, the order of the positions; unused ones are H or OH. Bridge positions count the residues as written; N and C are the ends. Square brackets hold non-standard residues; d marks the D form. Peptide text beside a SMILES is read from it. * marks the point of attachment. 2Nal = N[C@@H](Cc1ccc2ccccc2c1)C(=O)O; oXylylene = c1ccc(C[*:2])c(C[*:1])c1; Lys(iPr) = CC(C)NCCCC[C@H](N)C(=O)O; Bz = O=C(c1ccccc1)*
Biological target: T1, Human chemokine receptor CXCR4 (Homo sapiens, UniProt P61073)
T1 construct: expressed in transfected cells; host or cells: Chem-1 cells (membranes)
Assay: Human CXCR4/125I-SDF-1α binding inhibition assay
Procedure: Non-specific binding was estimated in the presence of 30 nM SDF-1α.

T1 sequence (P61073 whole entry): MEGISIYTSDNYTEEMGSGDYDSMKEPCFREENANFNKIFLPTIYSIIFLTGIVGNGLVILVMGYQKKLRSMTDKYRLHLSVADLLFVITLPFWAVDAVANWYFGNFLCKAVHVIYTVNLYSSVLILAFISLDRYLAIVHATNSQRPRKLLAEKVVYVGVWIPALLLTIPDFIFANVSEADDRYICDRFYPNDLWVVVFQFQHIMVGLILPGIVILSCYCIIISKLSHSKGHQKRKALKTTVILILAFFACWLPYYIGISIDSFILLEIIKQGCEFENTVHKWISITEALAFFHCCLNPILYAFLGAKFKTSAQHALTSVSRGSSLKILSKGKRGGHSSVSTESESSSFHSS

Q: For CC(C)NCCCC[C@H](NC(=O)[C@@H]1CSCc2ccccc2CSC[C@H](NC(=O)c2ccccc2)C(=O)N[C@@H](Cc2ccc(O)cc2)C(=O)N[C@@H](CCCCNC(C)C)C(=O)N[C@H](CCCNC(=N)N)C(=O)N[C@@H](Cc2ccc3ccccc3c2)C(=O)NCC(=O)N1)C(=O)NCC(N)=O [Example 20] (Bz-CY[Lys(iPr)][dR][2Nal]GC[Lys(iPr)]G-NH2; linker 1-7 via oXylylene), which IC50 is on record?
A: 1.3 nM

Q: What about the Kb of the same compound?
A: 0.39 nM

Reference: US11771736B2, “Composition comprising a therapeutic agent and a CXCR4 selective antagonist and methods for using the same” (Mainline Biosciences (Shanghai) Co., Ltd., priority 2017, dated 2023)
